Assay results: ChEMBL document CHEMBL1153498, “Aerobic oxidation of indolomorphinan without the 4,5-epoxy bridge and subsequent rearrangement of the oxidation product to spiroindolinonyl-C-normorphinan derivative” (Bioorg Med Chem, 2009)

How the values were obtained:
[1] = target: Kappa-type opioid receptor (Cavia porcellus, UniProt P41144); assay: Displacement of […] from Hartley guinea pig kappa opioid receptor by liquid scintillation counter
[2] = Displacement of [3H]NTI from Hartley guinea pig delta opioid receptor by liquid scintillation counter; design: species or system Cavia porcellus
[3] = target: Mu-type opioid receptor (Cavia porcellus, UniProt P97266); assay: Displacement of [3H]DAMGO from Hartley guinea pig mu opioid receptor by liquid scintillation counter
Sequence of Mu-type opioid receptor (P97266 whole entry): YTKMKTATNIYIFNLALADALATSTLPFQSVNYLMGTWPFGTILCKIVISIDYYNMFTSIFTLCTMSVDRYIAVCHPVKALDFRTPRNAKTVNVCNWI

Sequence of Kappa-type opioid receptor (P41144 whole entry): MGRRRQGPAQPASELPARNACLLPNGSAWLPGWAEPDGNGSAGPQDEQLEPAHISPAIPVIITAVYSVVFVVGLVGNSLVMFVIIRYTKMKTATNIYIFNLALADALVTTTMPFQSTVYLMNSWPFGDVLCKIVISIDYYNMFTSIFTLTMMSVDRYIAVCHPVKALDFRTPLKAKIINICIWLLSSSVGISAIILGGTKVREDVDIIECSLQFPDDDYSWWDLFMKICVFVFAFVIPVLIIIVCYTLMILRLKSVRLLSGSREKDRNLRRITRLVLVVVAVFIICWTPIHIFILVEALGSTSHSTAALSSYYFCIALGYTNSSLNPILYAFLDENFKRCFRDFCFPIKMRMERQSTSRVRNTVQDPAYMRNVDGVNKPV

Row | SMILES | Ki [1] | Ki [2] | Ki [3]
1 | O=C1c2ccccc2N[C@@]12C[C@]13CCN(CC4CC4)[C@H](Cc4ccc(O)cc41)[C@]3(O)C2 | 13.4 nM | 2.9 nM | 0.75 nM
2 | CN1CC[C@]23c4c5ccc(O)c4O[C@H]2C(=O)C2(Cc4ccccc4C2)C[C@@]3(O)[C@H]1C5 [SPIROINDANYLOXYMORPHONE] | – | 1.4 nM | –
